Values quoted from earlier work as cited in patent US4971799A, “Percutaneous-administration-type pharmaceutical preparation of nitroglycerin” (Sekisui Kagaku Kogyo Kabushiki Kaisha, priority 1987, dated 1990).

Details: intravenous injection

## O=[N+]([O-])OCC(CO[N+](=O)[O-])O[N+](=O)[O-] [nitroglycerin]
  Duration of effects: effects are lost after a very short period of time
High blood level for a short period
  Side effects: headache, dizziness, orthostatic hypotension
